Values joined by “and” are separate entries in the source; they are usually repeats but may differ in a detail not shown here. Equal entries are not always repeated.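 Values below derive from 48-hour exposures of cells grown in 96-well plates, with endpoints linearly interpolated between the two concentrations bracketing the appropriate inhibition level. GI50: concentration for 50% inhibition of growth. The concentration for full growth arrest is given as TGI.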 Where a SMILES comes first, the peptide text is derived from it. [ ]: non-standard residue; d: D form. The star is where a group is joined. NMeF = CN[CH](Cc1ccccc1)C(=O)O; NMeV = CN[CH](C(=O)O)C(C)C; Boc = CC(C)(C)OC(=O)*; OBn = c1ccc(CO*)cc1 Where only a bound is given, the exact number is not on record here.

Some test systems named below: NCI-H23 lung; A549 NSCLC; HCT-116 colon; SN12C renal; SF-268 CNS; U251 CNS; NCI-H226 lung; HCT-15 colon; OVCAR-8 ovarian; UACC-257 melanoma; UACC-62 melanoma; SF-295 CNS; CAKI-1 renal; HOP-92 NSCLC; RPMI-8226 leukemia.
Common to all, as to assay: NCI-60 cell line screen, 48 h

Consider `Clc1sc(Cl)c2c1[C@H](Cl)C[C@@H]2Cl`, for which the TGI with NCI-H23 lung came to 50 µM; in the assay with A549 NSCLC it was 86.2 µM; in the assay with HCT-116 colon, 20.9 µM; in the assay with SN12C renal it was 50.6 µM; in the assay with SF-268 CNS, 44.3 µM; in the assay on U251 CNS, 48.2 µM. Moreover, the TGI with NCI-H226 lung was 39.8 µM; in the assay with HCT-15 colon, 41.3 µM; in the assay with OVCAR-8 ovarian, 34.9 µM; with UACC-257 melanoma it was 92.9 µM; in the assay on UACC-62 melanoma, 43.7 µM; in the assay with SF-295 CNS, more than 100 µM. Also, the TGI turned out to be 44.5 µM in the assay on CAKI-1 renal and 34.4 µM in the assay on HOP-92 NSCLC.

As to `CC(O)CNC(=O)Nc1c(C(F)(F)F)cc(-c2ccccc2)[nH]c1=O` (stereo unspecified), the TGI in the assay with NCI-H23 lung, in the assay on A549 NSCLC, with HCT-116 colon, with SN12C renal, with SF-268 CNS and with U251 CNS was more than 100 µM throughout. Also, the TGI in the assay on NCI-H226 lung, with HCT-15 colon, with OVCAR-8 ovarian, in the assay on UACC-257 melanoma, in the assay on UACC-62 melanoma and with SF-295 CNS was more than 100 µM in each case. Further, the TGI in the assay with CAKI-1 renal and in the assay on HOP-92 NSCLC was more than 100 µM throughout.

Regarding `C=C(Cl)/C(=C\Cl)CCC(Cl)C(C)C` (stereo unspecified) (tested in a mixture with another compound), the TGI is 28.2 µM in the assay with NCI-H23 lung; more than 100 µM in the assay on A549 NSCLC; 29.8 µM with HCT-116 colon; 31.3 µM in the assay with SN12C renal; 37.1 µM with SF-268 CNS; 30.1 µM in the assay with U251 CNS. The TGI in the assay with NCI-H226 lung was 47.9 µM; in the assay with UACC-257 melanoma, 27.2 µM; in the assay with UACC-62 melanoma it was 25.3 µM; with SF-295 CNS, 41.2 µM; with CAKI-1 renal, 32.2 µM; with HOP-92 NSCLC it was 28.6 µM.

As to `CC(=O)OCC1OC(n2c(C)c(C(C)=O)c(-c3ccco3)c(C#N)c2=S)C(OC(C)=O)C(OC(C)=O)C1OC(C)=O` (stereo unspecified), the TGI in the assay with NCI-H23 lung, in the assay on A549 NSCLC, in the assay with HCT-116 colon, in the assay with SN12C renal, in the assay on SF-268 CNS and in the assay with U251 CNS was more than 100 µM in each case. The TGI in the assay on NCI-H226 lung, in the assay with HCT-15 colon, in the assay on OVCAR-8 ovarian, in the assay with UACC-257 melanoma, in the assay with UACC-62 melanoma and in the assay on SF-295 CNS was more than 100 µM in each case. The same compound registered a TGI with HOP-92 NSCLC of 87.5 µM.

In the case of `C[C@@H]1S[C@H](c2c(F)cccc2Cl)n2c1nc1ccccc12`, the TGI in the assay with NCI-H23 lung is 28 µM; with A549 NSCLC, 61.3 µM; in the assay on HCT-116 colon, 16.5 µM; with SN12C renal, 29 µM; in the assay with SF-268 CNS, 36.3 µM; with U251 CNS, 22.7 µM. The TGI with RPMI-8226 leukemia is 40.2 µM; in the assay with NCI-H226 lung, 37 µM; in the assay with HCT-15 colon, 19.3 µM; in the assay on OVCAR-8 ovarian, more than 100 µM; in the assay on UACC-257 melanoma it was 38.5 µM; in the assay with UACC-62 melanoma it was 29.7 µM. For the same compound, the TGI in the assay with SF-295 CNS was determined as 42 µM; with CAKI-1 renal it was 76.5 µM.

Turning to `CCN(CC)CCNc1ccc2ncn3c4ccc(OC)cc4c(=O)c1c23`, the TGI in the assay with NCI-H23 lung came out at 18.1 µM; in the assay on A549 NSCLC it was 9.71 µM; with HCT-116 colon it was 13.5 µM; in the assay with SN12C renal, 18.3 µM; with SF-268 CNS, 14.4 µM; in the assay with U251 CNS, 5.31 µM. Also, the TGI came out at 13.7 µM in the assay with NCI-H226 lung; 15.1 µM in the assay with HCT-15 colon; 11.8 µM in the assay on OVCAR-8 ovarian; 28.3 µM with UACC-257 melanoma; 33.9 µM in the assay with UACC-62 melanoma; 11.6 µM in the assay on SF-295 CNS. The TGI was found to be 21 µM with CAKI-1 renal and 23 µM in the assay on HOP-92 NSCLC.

Take `C=C(C)C1CC[C@@](C)(O)[C@H](C#N)C1` (stereo partly specified): the TGI with NCI-H23 lung, with A549 NSCLC, in the assay with HCT-116 colon, in the assay with SN12C renal, in the assay with SF-268 CNS and in the assay with U251 CNS was more than 100 µM each time. For the same compound, the TGI in the assay on RPMI-8226 leukemia, with NCI-H226 lung, in the assay with HCT-15 colon, in the assay on OVCAR-8 ovarian, in the assay on UACC-257 melanoma and in the assay with UACC-62 melanoma was more than 100 µM in each case. The TGI in the assay with SF-295 CNS and in the assay with CAKI-1 renal was more than 100 µM throughout.

`CC[C@H](C)[C@@H]([C@@H](CC(=O)N1CCC[C@H]1[C@H](OC)[C@@H](C)C(=O)NCCc1ccccc1)OC)N(C)C(=O)C(NC(=O)[C@H](C(C)C)N(C)C)C(C)C` (stereo partly specified): the TGI in the assay with NCI-H23 lung was more than 10 µM; in the assay with A549 NSCLC, 1.1 µM; with HCT-116 colon it was 0.0038 µM; with SN12C renal, 0.00499 µM and 0.00515 µM; in the assay on SF-268 CNS, more than 10 µM; in the assay on U251 CNS, 0.0068 µM. In addition, the TGI with NCI-H226 lung is 0.00784 µM; in the assay on HCT-15 colon, more than 10 µM; in the assay with OVCAR-8 ovarian it was more than 10 µM; with UACC-257 melanoma, more than 10 µM; in the assay on UACC-62 melanoma it was more than 10 µM; in the assay on CAKI-1 renal, more than 10 µM. The GI50 in the assay with SF-295 CNS was 0.281 nM.

Regarding `CCN(CC)C(=O)CCn1cc(F)c(=O)[nH]c1=O`, the TGI in the assay with NCI-H23 lung, with A549 NSCLC, with HCT-116 colon, in the assay on SN12C renal, in the assay on SF-268 CNS and with U251 CNS was more than 100 µM each time. The TGI in the assay with RPMI-8226 leukemia, in the assay on NCI-H226 lung, with HCT-15 colon, with OVCAR-8 ovarian, in the assay on UACC-62 melanoma and in the assay with SF-295 CNS was more than 100 µM in each case.

Consider `CC(C)C(NC(=O)OC(C)(C)C)C(=O)N(C)C(Cc1ccccc1)C(=O)N(C)C(C(=O)OCc1ccccc1)C(C)C` (stereo not drawn) (Boc-Val-[NMeF]-[NMeV]-OBn; configuration not given here), for which the TGI in the assay on NCI-H23 lung, with A549 NSCLC, in the assay on HCT-116 colon, in the assay with SN12C renal, in the assay on SF-268 CNS and with U251 CNS was more than 100 µM each time. Besides, the TGI in the assay with RPMI-8226 leukemia, in the assay with NCI-H226 lung, in the assay with HCT-15 colon, in the assay on OVCAR-8 ovarian, with UACC-257 melanoma and with UACC-62 melanoma was more than 100 µM each time. The compound also yielded a TGI with SF-295 CNS of more than 100 µM. The GI50 is 44.3 µM and > 100 µM with SN12C renal; 10.8 µM and 25.3 µM in the assay with RPMI-8226 leukemia; 20.5 µM and 44.3 µM with UACC-257 melanoma.

(Values after PubChem BioAssay (NCI).)
